Measurements as given in ChEMBL document CHEMBL3044761, “Lethal Activity of a Trehalase Inhibitor, Validoxylamine A, against Mamestra brassicae and Spodoptera litura” (J Pestic Sci, 1994).

Columns and labels:
Spodoptera litura [1] = assay: Insecticidal activity against last-instar Spodoptera litura larvae assessed as wing pad separation injected at 50 ug/larvae (reference value: 100%); format: functional
Spodoptera litura [2] = assay: Insecticidal activity against last-instar Spodoptera litura larvae assessed as mortality; format: functional
Spodoptera litura [3] = assay: Insecticidal activity against last-instar Spodoptera litura larvae assessed as larval pupal intermediate at 50 ug/larvae topical application (reference value: […]); format: functional
Mamestra brassicae [4] = assay: Insecticidal activity against last-instar Mamestra brassicae larvae assessed as normal pupae injected at 50 ug/larvae (reference value: 90%); format: functional
Spodoptera litura [5] = assay: Insecticidal activity against last-instar Spodoptera litura larvae assessed as partial pupation injected at 10 ug/larvae (reference value: […]); format: functional
Mamestra brassicae [6] = assay: Insecticidal activity against last-instar Mamestra brassicae larvae assessed as partial pupation injected at 5 ug/larvae (reference value: 10%); format: functional
[7] = Inhibition of Rhizoctonia solani beta-glucosidase; settings: read-out: I50
Spodoptera litura [8] = assay: Insecticidal activity against last-instar Spodoptera litura larvae assessed as partial pupation injected at 2 ug/larvae (reference value: 100%); format: functional
Mamestra brassicae [9] = assay: Insecticidal activity against last-instar Mamestra brassicae larvae assessed as normal pupae injected at 1 ug/larvae (reference value: 90%); format: functional
Spodoptera litura [10] = assay: Insecticidal activity against last-instar Spodoptera litura larvae assessed as partial pupation injected at 0.4 ug/larvae (reference value: […]); format: functional
Spodoptera litura [11] = assay: Insecticidal activity against last-instar Spodoptera litura larvae assessed as larval pupal intermediate injected at 2 ug/larvae (reference value: […]); format: functional
Trehalase (Bombyx mori) = target: T1, Trehalase (Bombyx mori) (UniProt P32358); assay: Inhibition of Bombyx mori trehalase activity in arborescent region of colleterial glands at 1 ug/pupa
T1 sequence (whole entry): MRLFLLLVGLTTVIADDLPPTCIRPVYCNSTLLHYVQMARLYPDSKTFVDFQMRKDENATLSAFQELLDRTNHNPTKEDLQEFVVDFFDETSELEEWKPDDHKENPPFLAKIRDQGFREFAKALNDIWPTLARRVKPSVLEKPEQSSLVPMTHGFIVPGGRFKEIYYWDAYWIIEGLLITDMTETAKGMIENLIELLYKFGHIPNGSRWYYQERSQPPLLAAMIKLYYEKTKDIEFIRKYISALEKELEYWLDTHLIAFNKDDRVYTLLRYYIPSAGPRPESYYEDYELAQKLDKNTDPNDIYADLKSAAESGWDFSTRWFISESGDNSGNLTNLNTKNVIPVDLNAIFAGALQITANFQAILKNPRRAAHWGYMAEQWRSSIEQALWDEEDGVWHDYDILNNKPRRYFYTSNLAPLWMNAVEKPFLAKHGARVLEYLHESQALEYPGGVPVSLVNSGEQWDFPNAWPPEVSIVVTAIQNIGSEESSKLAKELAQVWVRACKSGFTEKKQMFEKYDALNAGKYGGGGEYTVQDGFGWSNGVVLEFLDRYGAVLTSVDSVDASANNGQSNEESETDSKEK

Spodoptera litura [12] = assay: Insecticidal activity against last-instar Spodoptera litura larvae assessed as wing pad separation injected at 10 ug/larvae (reference value: 100%); format: functional
Mamestra brassicae [13] = assay: Insecticidal activity against last-instar Mamestra brassicae larvae assessed as wing pad separation at 50 ug/larvae topical application (reference value: 0%); format: functional
Mamestra brassicae [14] = assay: Insecticidal activity against last-instar Mamestra brassicae larvae assessed as larval-pupal intermediate at 50 ug/larvae topical application (reference value: 0%); format: functional
Spodoptera litura [15] = assay: Insecticidal activity against last-instar Spodoptera litura larvae assessed as normal pupae injected at 10 ug/larvae (reference value: 100%); format: functional
Spodoptera litura [16] = assay: Insecticidal activity against last-instar Spodoptera litura larvae assessed as partial pupation injected at 50 ug/larvae (reference value: 100%); format: functional
Mamestra brassicae [17] = assay: Insecticidal activity against last-instar Mamestra brassicae larvae assessed as partial pupation at 50 ug/larvae oral administration (reference value: 10%); format: functional
Spodoptera litura [18] = assay: Insecticidal activity against last-instar Spodoptera litura larvae assessed as normal pupae injected at 0.4 ug/larvae (reference value: 100%); format: functional
Mamestra brassicae [19] = assay: Insecticidal activity against last-instar Mamestra brassicae larvae assessed as wing pad separation injected at 5 ug/larvae (reference value: 0%); format: functional
Mamestra brassicae [20] = assay: Insecticidal activity against last-instar Mamestra brassicae larvae assessed as partial pupation injected at 1 ug/larvae (reference value: 10%); format: functional
Mamestra brassicae [21] = assay: Insecticidal activity against last-instar Mamestra brassicae larvae assessed as wing pad separation injected at 10 ug/larvae (reference value: 0%); format: functional
Spodoptera litura [22] = assay: Insecticidal activity against last-instar Spodoptera litura larvae assessed as larval pupal intermediate injected at 10 ug/larvae (reference value: […]); format: functional
Spodoptera litura [23] = assay: Insecticidal activity against last-instar Spodoptera litura larvae assessed as normal pupae injected at 2 ug/larvae (reference value: 100%); format: functional
Mamestra brassicae [24] = assay: Insecticidal activity against last-instar Mamestra brassicae larvae assessed as larval-pupal intermediate injected at 5 ug/larvae (reference value: 0%); format: functional
Mamestra brassicae [25] = assay: Insecticidal activity against last-instar Mamestra brassicae larvae assessed as normal pupae injected at 10 ug/larvae (reference value: 90%); format: functional
Spodoptera litura [26] = assay: Insecticidal activity against last-instar Spodoptera litura larvae assessed as wing pad separation injected at 0.4 ug/larvae (reference value: 100%); format: functional
Spodoptera litura [27] = assay: Insecticidal activity against last-instar Spodoptera litura larvae assessed as partial pupation at 50 ug/larvae topical application (reference value: […]); format: functional
[28] = Inhibition of Rhizoctonia solani alpha-glucosidase; settings: read-out: I50
Mamestra brassicae [29] = assay: Insecticidal activity against last-instar Mamestra brassicae larvae assessed as partial pupation injected at 50 ug/larvae (reference value: 10%); format: functional
Mamestra brassicae [30] = assay: Insecticidal activity against last-instar Mamestra brassicae larvae assessed as mortality; format: functional
Spodoptera litura [31] = assay: Insecticidal activity against last-instar Spodoptera litura larvae assessed as wing pad separation injected at 2 ug/larvae (reference value: 100%); format: functional
Trehalase = target: T2, Trehalase (Rattus norvegicus, UniProt O70282); assay: Inhibition of Rattus norvegicus (rat) trehalase; settings: read-out: I50
T2 sequence (O70282 whole entry): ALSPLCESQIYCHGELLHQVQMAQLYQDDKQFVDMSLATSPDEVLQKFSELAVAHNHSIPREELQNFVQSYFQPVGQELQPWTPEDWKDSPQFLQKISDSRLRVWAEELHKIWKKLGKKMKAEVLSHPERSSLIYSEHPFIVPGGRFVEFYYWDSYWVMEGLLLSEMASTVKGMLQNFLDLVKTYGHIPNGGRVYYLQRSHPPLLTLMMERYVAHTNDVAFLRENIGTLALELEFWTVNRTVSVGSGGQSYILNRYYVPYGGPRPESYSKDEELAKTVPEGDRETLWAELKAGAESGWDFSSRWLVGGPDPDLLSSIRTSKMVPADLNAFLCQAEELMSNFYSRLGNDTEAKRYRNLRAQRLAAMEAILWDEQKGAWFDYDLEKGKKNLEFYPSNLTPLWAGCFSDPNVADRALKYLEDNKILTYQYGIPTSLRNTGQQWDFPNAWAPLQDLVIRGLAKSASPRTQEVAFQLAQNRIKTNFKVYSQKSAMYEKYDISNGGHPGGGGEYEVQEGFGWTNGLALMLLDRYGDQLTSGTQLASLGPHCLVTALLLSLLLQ

OCC1=C[C@H](N[C@H]2C[C@H](CO)[C@@H](O)[C@H](O)[C@H]2O)[C@H](O)[C@@H](O)[C@@H]1O [VALIDOXYLAMINE A]
Activity (Spodoptera litura [1]): 13%
LD50 (Spodoptera litura [2]): 2.42 µg
Activity (Spodoptera litura [3]): 5%
Activity (Mamestra brassicae [4]): 0%
Activity (Spodoptera litura [5]): 40%
Activity (Mamestra brassicae [6]): 27%
IC50 [7]: > 1000 µM
Activity (Spodoptera litura [8]): 20%
Activity (Mamestra brassicae [9]): 27%
Activity (Spodoptera litura [10]): 10%
Activity (Spodoptera litura [11]): 15%
inhibition (Trehalase (Bombyx mori)): 78%
Activity (Spodoptera litura [12]): 15%
Activity (Mamestra brassicae [13]): 0%
Activity (Mamestra brassicae [14]): 0%
Activity (Spodoptera litura [15]): 20%
Activity (Spodoptera litura [16]): 30%
Activity (Mamestra brassicae [17]): 0%
Activity (Spodoptera litura [18]): 85%
Activity (Mamestra brassicae [19]): 7%
Activity (Mamestra brassicae [20]): 27%
Activity (Mamestra brassicae [21]): 7%
Activity (Spodoptera litura [22]): 25%
Activity (Spodoptera litura [23]): 60%
Activity (Mamestra brassicae [24]): 60%
Activity (Mamestra brassicae [25]): 0%
Activity (Spodoptera litura [26]): 5%
Activity (Spodoptera litura [27]): 5%
IC50 [28]: > 1000 µM
Activity (Mamestra brassicae [29]): 0%
LD50 (Mamestra brassicae [30]): <1 µg
Activity (Spodoptera litura [31]): 5%
IC50 (Trehalase): 0.0049 µM
